± gives the uncertainty stated by the source.
Experiment: xn = mol fraction of the nth substance listed
Details: 100 kPa

CCCCCCCC[n+]1ccccc1.[Br-] + NCC(=O)O + O
Details | electrical conductivity [S/m]
298.15 K, x2 = 0.0008985, x1 = 0.001921 | 0.725 ± 0.043
298.15 K, x2 = 0.0008988, x1 = 0.001519 | 0.603 ± 0.036
298.15 K, x2 = 0.0008992, x1 = 0.001128 | 0.473 ± 0.029
298.15 K, x2 = 0.0008996, x1 = 0.0006772 | 0.315 ± 0.019
298.15 K, x2 = 0.001793, x1 = 0.003376 | 1.11 ± 0.067
298.15 K, x2 = 0.001794, x1 = 0.002781 | 0.967 ± 0.058
298.15 K, x2 = 0.001795, x1 = 0.002123 | 0.782 ± 0.047
298.15 K, x2 = 0.001796, x1 = 0.001706 | 0.657 ± 0.04
298.15 K, x2 = 0.001797, x1 = 0.000766 | 0.347 ± 0.021
298.15 K, x2 = 0.001797, x1 = 0.001249 | 0.511 ± 0.031
303.15 K, x2 = 0.0008947, x1 = 0.006085 | 1.78 ± 0.11
303.15 K, x2 = 0.000895, x1 = 0.005803 | 1.74 ± 0.1
303.15 K, x2 = 0.0008952, x1 = 0.005503 | 1.69 ± 0.1
303.15 K, x2 = 0.0008955, x1 = 0.005188 | 1.64 ± 0.098
303.15 K, x2 = 0.0008958, x1 = 0.004838 | 1.58 ± 0.095
303.15 K, x2 = 0.0008962, x1 = 0.004456 | 1.51 ± 0.09
303.15 K, x2 = 0.0008965, x1 = 0.004039 | 1.42 ± 0.085
303.15 K, x2 = 0.000897, x1 = 0.003583 | 1.3 ± 0.078
303.15 K, x2 = 0.0008974, x1 = 0.003082 | 1.17 ± 0.07
303.15 K, x2 = 0.0008979, x1 = 0.002531 | 1 ± 0.06
303.15 K, x2 = 0.0008985, x1 = 0.001917 | 0.791 ± 0.048
303.15 K, x2 = 0.0008988, x1 = 0.001517 | 0.654 ± 0.039
303.15 K, x2 = 0.0008992, x1 = 0.001126 | 0.519 ± 0.031
303.15 K, x2 = 0.0008996, x1 = 0.0006772 | 0.351 ± 0.021
303.15 K, x2 = 0.001793, x1 = 0.00337 | 1.24 ± 0.074
303.15 K, x2 = 0.001794, x1 = 0.002778 | 1.08 ± 0.065
303.15 K, x2 = 0.001795, x1 = 0.002119 | 0.859 ± 0.052
303.15 K, x2 = 0.001796, x1 = 0.001704 | 0.719 ± 0.043
303.15 K, x2 = 0.001797, x1 = 0.000766 | 0.383 ± 0.023
303.15 K, x2 = 0.001797, x1 = 0.001247 | 0.566 ± 0.034
308.15 K, x2 = 0.0008947, x1 = 0.006075 | 2.03 ± 0.12
308.15 K, x2 = 0.000895, x1 = 0.005792 | 1.97 ± 0.12
308.15 K, x2 = 0.0008952, x1 = 0.005494 | 1.9 ± 0.11
308.15 K, x2 = 0.0008955, x1 = 0.005178 | 1.84 ± 0.11
308.15 K, x2 = 0.0008958, x1 = 0.004829 | 1.75 ± 0.1
308.15 K, x2 = 0.0008962, x1 = 0.004449 | 1.66 ± 0.1
308.15 K, x2 = 0.0008966, x1 = 0.004032 | 1.57 ± 0.094
308.15 K, x2 = 0.000897, x1 = 0.003578 | 1.44 ± 0.086
308.15 K, x2 = 0.0008974, x1 = 0.003077 | 1.26 ± 0.076
308.15 K, x2 = 0.0008979, x1 = 0.002527 | 1.07 ± 0.064
308.15 K, x2 = 0.0008985, x1 = 0.001914 | 0.861 ± 0.052
308.15 K, x2 = 0.0008988, x1 = 0.001516 | 0.717 ± 0.043
308.15 K, x2 = 0.0008992, x1 = 0.001125 | 0.574 ± 0.035
308.15 K, x2 = 0.0008996, x1 = 0.0006754 | 0.425 ± 0.026
308.15 K, x2 = 0.001793, x1 = 0.003365 | 1.36 ± 0.082
308.15 K, x2 = 0.001794, x1 = 0.002774 | 1.17 ± 0.07
308.15 K, x2 = 0.001795, x1 = 0.002116 | 0.934 ± 0.056
308.15 K, x2 = 0.001796, x1 = 0.001701 | 0.79 ± 0.048
308.15 K, x2 = 0.001797, x1 = 0.0007642 | 0.453 ± 0.027
308.15 K, x2 = 0.001797, x1 = 0.001245 | 0.624 ± 0.037
